# Experiments:
# [1] = target: Tyrosine-protein kinase Srms (Homo sapiens) (UniProt Q9H3Y6); experiment: Inhibition of SRMS (unknown origin) assessed as residual activity at 1000 nM by KINOMEscan analysis relative to control
# [2] = target: T1, Protein kinase C epsilon type (Homo sapiens) (UniProt Q02156); experiment: Inhibition of PRKCE (unknown origin) assessed as residual activity at 1000 nM by KINOMEscan analysis relative to control
# T1 sequence (whole entry): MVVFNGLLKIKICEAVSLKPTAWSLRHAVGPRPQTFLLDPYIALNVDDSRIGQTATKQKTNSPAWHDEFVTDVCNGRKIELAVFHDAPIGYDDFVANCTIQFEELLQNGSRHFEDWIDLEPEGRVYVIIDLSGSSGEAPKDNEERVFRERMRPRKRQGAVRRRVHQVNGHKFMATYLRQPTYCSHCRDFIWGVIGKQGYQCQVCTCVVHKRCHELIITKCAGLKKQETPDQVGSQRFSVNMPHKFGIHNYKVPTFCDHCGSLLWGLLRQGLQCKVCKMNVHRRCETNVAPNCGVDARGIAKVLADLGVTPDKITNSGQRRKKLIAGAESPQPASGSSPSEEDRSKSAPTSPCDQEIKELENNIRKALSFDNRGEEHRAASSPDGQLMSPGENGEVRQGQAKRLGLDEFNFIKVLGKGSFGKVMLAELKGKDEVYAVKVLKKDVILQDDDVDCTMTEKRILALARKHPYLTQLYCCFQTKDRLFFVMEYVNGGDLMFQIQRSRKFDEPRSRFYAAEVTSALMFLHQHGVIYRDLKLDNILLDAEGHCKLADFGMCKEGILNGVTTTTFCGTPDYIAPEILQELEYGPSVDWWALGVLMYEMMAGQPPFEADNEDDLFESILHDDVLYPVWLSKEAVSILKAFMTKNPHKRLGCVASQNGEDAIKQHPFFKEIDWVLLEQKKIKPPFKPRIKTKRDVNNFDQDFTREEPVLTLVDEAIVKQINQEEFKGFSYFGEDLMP
# [3] = target: T2, Membrane-associated tyrosine- and threonine-specific cdc2-inhibitory kinase (Homo sapiens) (UniProt Q99640); experiment: Inhibition of PKMYT1 (unknown origin) assessed as residual activity at 1000 nM by KINOMEscan analysis relative to control
# T2 sequence (whole entry): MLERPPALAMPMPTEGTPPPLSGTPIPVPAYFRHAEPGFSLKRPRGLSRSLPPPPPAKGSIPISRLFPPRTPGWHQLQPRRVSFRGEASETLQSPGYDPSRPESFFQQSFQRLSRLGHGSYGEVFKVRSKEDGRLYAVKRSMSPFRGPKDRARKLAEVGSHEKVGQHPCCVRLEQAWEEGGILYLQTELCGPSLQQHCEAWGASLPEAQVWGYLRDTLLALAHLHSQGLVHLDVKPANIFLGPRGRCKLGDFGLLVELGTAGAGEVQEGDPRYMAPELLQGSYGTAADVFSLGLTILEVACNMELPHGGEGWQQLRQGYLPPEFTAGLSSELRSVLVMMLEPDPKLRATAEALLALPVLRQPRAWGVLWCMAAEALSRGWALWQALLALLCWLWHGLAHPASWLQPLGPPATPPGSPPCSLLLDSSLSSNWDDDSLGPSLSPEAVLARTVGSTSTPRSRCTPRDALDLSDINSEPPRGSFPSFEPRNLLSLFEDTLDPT
# [4] = target: T3, Serine/threonine-protein kinase 36 (Homo sapiens) (UniProt Q9NRP7); experiment: Inhibition of STK36 (unknown origin) assessed as residual activity at 1000 nM by KINOMEscan analysis relative to control
# T3 sequence (whole entry): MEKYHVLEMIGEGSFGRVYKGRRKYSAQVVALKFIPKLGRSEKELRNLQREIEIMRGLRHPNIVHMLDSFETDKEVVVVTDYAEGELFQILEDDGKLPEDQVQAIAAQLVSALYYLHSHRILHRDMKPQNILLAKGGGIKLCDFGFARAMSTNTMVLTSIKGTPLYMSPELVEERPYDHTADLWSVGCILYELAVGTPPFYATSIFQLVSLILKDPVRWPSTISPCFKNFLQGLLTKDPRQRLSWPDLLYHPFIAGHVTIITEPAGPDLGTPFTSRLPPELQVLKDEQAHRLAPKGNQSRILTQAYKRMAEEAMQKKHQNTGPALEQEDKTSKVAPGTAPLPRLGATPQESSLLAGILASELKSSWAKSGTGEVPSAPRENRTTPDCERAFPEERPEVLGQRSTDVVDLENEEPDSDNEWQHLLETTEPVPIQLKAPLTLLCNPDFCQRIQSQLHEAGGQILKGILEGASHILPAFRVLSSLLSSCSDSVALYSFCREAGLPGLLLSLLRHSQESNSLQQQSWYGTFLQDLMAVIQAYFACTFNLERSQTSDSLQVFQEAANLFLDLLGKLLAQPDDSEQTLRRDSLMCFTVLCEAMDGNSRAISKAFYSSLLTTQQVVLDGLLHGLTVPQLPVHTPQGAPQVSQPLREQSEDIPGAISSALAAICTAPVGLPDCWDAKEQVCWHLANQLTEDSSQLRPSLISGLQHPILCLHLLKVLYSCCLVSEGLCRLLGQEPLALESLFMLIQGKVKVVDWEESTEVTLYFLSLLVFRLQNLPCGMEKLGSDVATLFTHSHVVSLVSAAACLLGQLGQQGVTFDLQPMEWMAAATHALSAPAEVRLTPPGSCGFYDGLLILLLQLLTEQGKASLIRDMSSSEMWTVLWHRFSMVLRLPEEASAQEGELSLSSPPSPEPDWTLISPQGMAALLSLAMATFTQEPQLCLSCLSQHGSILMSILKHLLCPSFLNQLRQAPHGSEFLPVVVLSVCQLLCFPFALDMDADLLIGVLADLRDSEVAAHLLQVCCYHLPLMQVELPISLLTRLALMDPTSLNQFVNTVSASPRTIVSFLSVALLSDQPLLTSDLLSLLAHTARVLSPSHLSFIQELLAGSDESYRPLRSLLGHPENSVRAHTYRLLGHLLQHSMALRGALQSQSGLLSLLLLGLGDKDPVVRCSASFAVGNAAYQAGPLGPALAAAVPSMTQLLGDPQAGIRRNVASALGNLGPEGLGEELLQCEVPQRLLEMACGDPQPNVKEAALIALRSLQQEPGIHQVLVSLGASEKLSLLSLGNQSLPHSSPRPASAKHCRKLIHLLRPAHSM
# [5] = tested on: Phosphatidylinositol 4,5-bisphosphate 3-kinase catalytic subunit alpha isoform (Homo sapiens), P42336 [M1043I]; experiment: Inhibition of PIK3CA M1043I mutant (unknown origin) assessed as residual activity at 1000 nM by KINOMEscan analysis relative to control
# [6] = target: Ribosomal protein S6 kinase alpha-3 (Homo sapiens) (UniProt P51812); experiment: Inhibition of C-terminal RSK2 kinetic domain 2 (unknown origin) assessed as residual activity at 1000 nM by KINOMEscan analysis relative to control
# [7] = target: STE20/SPS1-related proline-alanine-rich protein kinase (Homo sapiens) (UniProt Q9UEW8); experiment: Inhibition of STK39 (unknown origin) assessed as residual activity at 1000 nM by KINOMEscan analysis relative to control
# Phosphatidylinositol 4,5-bisphosphate 3-kinase catalytic subunit alpha isoform (Homo sapiens), P42336 [M1043I], sequence (P42336 whole entry M1043I, the tested form may be a part, canonical isoform): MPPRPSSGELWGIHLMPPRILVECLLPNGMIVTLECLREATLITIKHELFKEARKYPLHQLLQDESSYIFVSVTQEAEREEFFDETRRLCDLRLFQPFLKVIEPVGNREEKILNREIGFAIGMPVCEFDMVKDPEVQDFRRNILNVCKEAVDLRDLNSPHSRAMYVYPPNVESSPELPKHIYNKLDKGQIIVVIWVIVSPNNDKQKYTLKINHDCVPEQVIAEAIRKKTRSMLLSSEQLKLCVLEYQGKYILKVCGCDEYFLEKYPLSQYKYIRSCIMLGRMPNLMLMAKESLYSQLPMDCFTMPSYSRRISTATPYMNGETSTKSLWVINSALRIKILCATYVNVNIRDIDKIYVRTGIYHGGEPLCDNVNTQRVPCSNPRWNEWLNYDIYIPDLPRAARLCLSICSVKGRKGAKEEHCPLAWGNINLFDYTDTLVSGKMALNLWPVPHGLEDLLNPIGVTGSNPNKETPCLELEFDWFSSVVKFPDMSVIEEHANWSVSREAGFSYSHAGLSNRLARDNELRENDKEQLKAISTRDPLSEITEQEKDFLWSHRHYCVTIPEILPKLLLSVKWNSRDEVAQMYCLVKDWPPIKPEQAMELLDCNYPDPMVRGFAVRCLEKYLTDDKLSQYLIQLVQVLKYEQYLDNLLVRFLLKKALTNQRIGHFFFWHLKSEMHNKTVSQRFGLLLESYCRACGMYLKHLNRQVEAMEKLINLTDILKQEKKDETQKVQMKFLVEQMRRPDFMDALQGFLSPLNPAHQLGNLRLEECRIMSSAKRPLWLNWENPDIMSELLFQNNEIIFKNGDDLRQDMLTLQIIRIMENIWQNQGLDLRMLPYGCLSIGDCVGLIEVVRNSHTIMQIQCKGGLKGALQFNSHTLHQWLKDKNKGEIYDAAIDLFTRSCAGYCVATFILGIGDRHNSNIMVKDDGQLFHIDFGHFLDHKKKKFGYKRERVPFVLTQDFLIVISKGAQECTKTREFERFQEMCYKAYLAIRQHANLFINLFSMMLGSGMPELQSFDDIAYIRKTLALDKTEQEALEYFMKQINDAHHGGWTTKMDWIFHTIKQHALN
# Tyrosine-protein kinase Srms (Homo sapiens), sequence (Q9H3Y6 whole entry): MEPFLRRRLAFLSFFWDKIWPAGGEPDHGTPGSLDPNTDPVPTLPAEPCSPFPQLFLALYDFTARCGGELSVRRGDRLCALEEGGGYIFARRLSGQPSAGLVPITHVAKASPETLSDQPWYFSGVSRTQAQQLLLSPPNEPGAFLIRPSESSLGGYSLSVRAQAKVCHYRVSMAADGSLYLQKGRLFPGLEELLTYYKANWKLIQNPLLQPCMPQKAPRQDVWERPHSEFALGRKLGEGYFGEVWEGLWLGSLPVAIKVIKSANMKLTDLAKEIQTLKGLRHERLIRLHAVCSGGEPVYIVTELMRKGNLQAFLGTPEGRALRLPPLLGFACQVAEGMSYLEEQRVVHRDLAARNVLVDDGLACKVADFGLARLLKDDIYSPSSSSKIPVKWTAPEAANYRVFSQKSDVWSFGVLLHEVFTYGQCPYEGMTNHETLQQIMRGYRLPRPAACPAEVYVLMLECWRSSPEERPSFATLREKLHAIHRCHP
# Ribosomal protein S6 kinase alpha-3 (Homo sapiens), sequence (P51812 whole entry, the tested form may be a part): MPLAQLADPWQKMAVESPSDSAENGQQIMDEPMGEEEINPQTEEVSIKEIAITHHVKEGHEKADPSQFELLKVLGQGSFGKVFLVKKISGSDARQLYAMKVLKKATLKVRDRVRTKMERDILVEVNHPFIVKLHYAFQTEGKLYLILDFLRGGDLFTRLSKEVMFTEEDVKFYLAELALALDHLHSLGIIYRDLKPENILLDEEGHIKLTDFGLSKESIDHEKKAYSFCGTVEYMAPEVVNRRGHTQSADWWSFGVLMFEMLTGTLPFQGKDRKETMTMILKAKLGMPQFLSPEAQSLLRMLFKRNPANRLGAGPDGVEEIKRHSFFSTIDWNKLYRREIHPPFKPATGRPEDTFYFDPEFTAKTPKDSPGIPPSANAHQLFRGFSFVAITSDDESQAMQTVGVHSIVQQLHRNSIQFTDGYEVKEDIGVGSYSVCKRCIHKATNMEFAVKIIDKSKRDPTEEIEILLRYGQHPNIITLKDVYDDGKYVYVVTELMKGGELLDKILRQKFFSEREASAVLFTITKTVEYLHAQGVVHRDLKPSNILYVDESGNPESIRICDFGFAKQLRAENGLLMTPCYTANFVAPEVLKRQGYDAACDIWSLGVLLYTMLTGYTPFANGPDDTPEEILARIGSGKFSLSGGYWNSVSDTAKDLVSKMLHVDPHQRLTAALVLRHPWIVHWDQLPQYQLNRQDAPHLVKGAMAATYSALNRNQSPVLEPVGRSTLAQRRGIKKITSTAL
SMILES,Activity [1] [%],Activity [2] [%],Activity [3] [%],Activity [4] [%],Activity [5] [%],Activity [6] [%],Activity [7] [%]
COc1cc2ncnc(N[C@H](C)c3cccc4ccccc34)c2cc1OC,83,95,100,100,92,100,100
COc1cc2nc(C)nc(N[C@H](C)c3cccc(-c4cn[nH]c4)c3)c2cc1OC,87,80,53,100,100,100,76
